Test results from US20120302629A1, “BIOMARKERS FOR GOSSYPOL CHEMOTHERAPY AND METHODS OF TREATING DISEASE” (THE REGENTS OF THE UNIVERSITY OF MICHIGAN, priority 2009, published 2012).
pIC50: −log10 of the molar value. Values belong to the molecule of their own block, whether it stands above or below them.

Tests used:
2LMP cells [1] = assay: Cell death by trypan blue dye exclusion; assay type: cell-based, human; conditions: for cell death: 48 h
Method: (§1) Cell Growth, Cell Death, and Apoptosis: Cell growth inhibition by (−)-gossypol was determined in a water-soluble tetrazolium (WST)-based assay, as described previously (Shangary et al., Proc. Natl. Acad. Sci. USA 105:3933 (2008)). Cell viability was determined by trypan blue due exclusion as described (Shangary et al., Proc. Natl. Acad. Sci. USA 105:3933 (2008)). Experiments were done in triplicate. To examine apoptosis, cells were stained with Annexin V and PI and analyzed by flow cytometery using an Annexin V-FITC staining kit (Roche Applied Science, Indianapolis, Ind.) according to manufacturer's instructions. Briefly, cells were treated and collected by centrifugation, washed with PBS once and then stained with annexinV-FITC and PI for 15 min at room temperature in the dark. Stained cells were analyzed in a FACS caliber flow cytometer. AnnexinV positive cells are considered as apoptotic cells.

PC-3 cells [2] = assay: Cell death by trypan blue dye exclusion; assay type: cell-based, human
Method: as §1

[3] = test system: caspase-9 and -3/-7 in 2LMP cells; assay: Fluorometric caspase activity assays; assay type: cell-based, human; conditions: 5 μM
Method: Fluorometric caspase activity assays: Cells were harvested in cell lysis buffer provided by Biovision research products (Mountain View, Calif.). 20 μg of protein was evaluated for caspase activity by incubating with fluorogenic caspase-3 or -9 substrate (EMD Biosciences) in reaction buffer (Biovision). Detection of cleavage of substrate Ac-DEVD-AFC (preferentially cleaved by caspase-3) and Ac-LEHD-AFC (preferentially cleaved by caspase-9) were measured at a λexc=400 nm and λem=505 nm using a Telcan Ultra plate reader (Männedorf, Switzerland). Experiments were performed in triplicate.

2LMP cells [4] = assay: Apoptosis (Annexin V/PI flow cytometry) after siRNA knock-down; assay type: cell-based, human
Method: as §1
(§2) RNA interference: Gene specific double-stranded RNA oligonucleotide targeting Noxa, Puma, c-Myc, HIF1-α, E2F1#2, Bax, Bak, were purchased from Dharmacon RNAi technologies as Sigenome on-targetplus SMARTpool duplex (Lafayette, Colo.). SiRNA of E2F#1 was purchased from Santa Cruz. As a negative control, siRNA against GFP target sequence 5′-[…]-3′ was employed (Qiagen, Valencia, Calif.). Transfections were performed using Lipofectamine RNAiMAX, according to manufacturer's instructions (Invitrogen, Carlsbad, Calif.). (−)-Gossypol was added 24 h after transfection and cells were harvested after 18 h treatment of (−)-gossypol. Three independent knock down experiments were performed for each gene.

PC-3 cells [5] = assay: as above; assay type: cell-based, human
Method: as §1, §2

DU145 cells = assay: Cell death (trypan blue) after siRNA knock-down; assay type: cell-based, human
Method: as §1
(§3) RNA interference: Gene specific double-stranded RNA oligonucleotide targeting Noxa, Puma, c-Myc, HIF1-α, E2F1#2, Bax, Bak, were purchased from Dharmacon RNAi technologies as Sigenome on-targetplus SMARTpool duplex (Lafayette, Colo.). SiRNA of E2F#1 was purchased from Santa Cruz. As a negative control, siRNA against GFP target sequence 5′-[…]-3′ was employed (Qiagen, Valencia, Calif.). […]

MEF Bax/Bak KO cells = assay: Apoptosis (Annexin V/PI flow cytometry) in MEF cells; assay type: cell-based; conditions: for cells to undergo apoptosis: 24 h
Method: as §1

wild-type MEF cells = assay: as above; assay type: cell-based; conditions: 24 h
Method: as §1

[6] = test system: Bcl-2 family proteins in 2LMP cells; assay: Western blot of whole cell lysates; assay type: cell-based, human
Method: (§4) Western blot assay: Proteins were harvested in RIPA buffer, then electrophoresed on 4-20% gradient SDS-PAGE gels (Invitrogen, Grand Island, N.Y.) and transferred to PVDF membranes. The membranes were blocked in 5% milk and then incubated with specific primary antibody, followed by secondary antibody. The signals were visualized with the chemiluminescent HRP antibody detection reagent (Deville Scientific, Metuchen, N.J.).

[7] = test system: Bcl-2 family proteins in PC-3 cells; assay: Western blot of whole cell lysates; assay type: cell-based, human; conditions: 10 μM
Method: as §4

[8] = test system: 5 breast (MDA-MB-231, MDA-MB-436, MDA-MB-468, BT-549 and MCF-7) and 3 prostate (22Rv1, DU145 and LNCaP) cancer cell lines; assay: Western blot in 8 additional cancer cell lines; assay type: cell-based, human; conditions: treated for 24 h, all 8 cancer cell lines
Method: as §4

FF (fibroblast) cells = assay: Cell death (trypan blue) and western blot in normal cells; assay type: cell-based, human
Method: as §1, §4

HMEC cells = assay: as above; assay type: cell-based, human
Method: as §1, §4

MCF-12F cells = assay: as above; assay type: cell-based, human
Method: as §1, §4

Noxa mRNA in 2LMP cells = assay: Taqman real-time PCR; assay type: cell-based, human; conditions: 10 μm
Method: (§5) Real-Time PCR: Total RNA was extracted by RNA miniprep kit (Sigma) from cells treated with or without of (−)-gossypol. cDNA was synthesized from 2 μg of RNA using cDNA reverse transcription kits (Applied Biosystems). Next, Taqman gene expression assays were performed using Noxa (Hs00560402_ml), Puma (Hs00248075_ml), Mcl-1 (Hs00172036_ml) gene specific primers/probe sets for real-time PCR in a ABI7900HT PCR machine. GAPDH (Hs99999905_ml) was used for normalization. Relative quantitation of mRNA was calculated by comparative cycle threshold (Ct) method.

Puma mRNA in 2LMP cells = assay: Taqman real-time PCR; assay type: cell-based, human; conditions: 10 μm
Method: as §5

[9] = test system: long form of Mcl-1 mRNA in 2LMP cells; assay: Taqman real-time PCR; assay type: cell-based, human; conditions: 10 μm, 5-10 h time-points
Method: as §5

2LMP cells [10] = assay: WST cell growth assay; assay type: cell-based, human; conditions: 4 days
Method: as §1

MDA-MB-436 cells = assay: WST cell growth assay; assay type: cell-based, human; conditions: (−)-gossypol 0.5 and 1 μM, 4 days
Method: as §1

PC-3 cells [11] = assay: WST cell growth assay; assay type: cell-based, human; conditions: 4 days
Method: as §1

RKO colon cancer cells = assay: Cell death after c-Myc knock-down; assay type: cell-based; conditions: p53 wild-type, c-Myc siRNA
Method: as §1, §3

Bcl-2 = Bcl-2 (Homo sapiens, UniProt P10415); conditions: Wang et al., J. Med. Chem. 49:6139 (2006); cited from earlier work
Bcl-xL = Bcl-xL (Homo sapiens, UniProt Q07817); conditions: Wang et al., J. Med. Chem. 49:6139 (2006); cited from earlier work
Mcl-1 = Mcl-1 (Homo sapiens, UniProt Q07820); conditions: Wang et al., J. Med. Chem. 49:6139 (2006); cited from earlier work
Sequence of Mcl-1 (Q07820 whole entry): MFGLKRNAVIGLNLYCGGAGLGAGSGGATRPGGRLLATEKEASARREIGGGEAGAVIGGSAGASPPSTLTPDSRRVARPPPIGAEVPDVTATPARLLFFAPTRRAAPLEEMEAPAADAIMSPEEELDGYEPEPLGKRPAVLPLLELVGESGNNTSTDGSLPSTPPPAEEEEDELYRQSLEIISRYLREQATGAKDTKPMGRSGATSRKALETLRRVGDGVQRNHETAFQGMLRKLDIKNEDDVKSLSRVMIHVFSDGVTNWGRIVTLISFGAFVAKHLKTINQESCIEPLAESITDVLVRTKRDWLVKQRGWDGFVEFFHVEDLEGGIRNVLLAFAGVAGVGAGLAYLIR

Sequence of Bcl-2 (P10415 whole entry): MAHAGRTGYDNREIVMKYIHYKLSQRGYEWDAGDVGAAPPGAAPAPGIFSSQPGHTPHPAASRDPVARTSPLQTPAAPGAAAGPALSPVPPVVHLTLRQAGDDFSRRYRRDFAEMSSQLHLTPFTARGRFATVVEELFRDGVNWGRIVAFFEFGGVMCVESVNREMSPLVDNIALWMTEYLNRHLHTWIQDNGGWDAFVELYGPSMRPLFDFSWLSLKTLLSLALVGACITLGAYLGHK
Sequence of Bcl-xL (Q07817 whole entry): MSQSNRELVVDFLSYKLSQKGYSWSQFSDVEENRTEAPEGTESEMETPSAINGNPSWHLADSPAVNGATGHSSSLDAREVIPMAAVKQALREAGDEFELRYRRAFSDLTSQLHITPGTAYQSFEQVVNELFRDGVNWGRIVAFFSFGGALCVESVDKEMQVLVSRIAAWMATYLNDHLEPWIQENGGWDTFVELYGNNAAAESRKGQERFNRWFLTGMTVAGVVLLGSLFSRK

SMILES: Cc1cc2c(C(C)C)c(O)c(O)c(C=O)c2c(O)c1-c1c(C)cc2c(C(C)C)c(O)c(O)c(C=O)c2c1O [(−)-gossypol]
- cells killed (2LMP cells [1]; 2.5 μM, 48 h treatment): 14%
- cells to undergo cell death (2LMP cells [1]; 10 μM, 24 hour-treatment (FIG. 1)): 30-40%
- cells lost their viability (2LMP cells [1]; 10 μM, 24 h time-point): approximately 40%
- cells lost their viability (2LMP cells [1]; 10 μM, 36 h time-point): approximately 70%
- cells lost their viability (2LMP cells [1]; 10 μM, 48 h time-point): ~100%
- cell death at time-points earlier than 12 h (2LMP cells [1]; 10 μM, time course): no significant cell death
- cells to undergo cell death (PC-3 cells [2]; 10 μM, 24 hour-treatment): 30-40%
- cells lost their viability (PC-3 cells [2]; 10 μM, 24 h time-point): approximately 40%
- cells lost their viability (PC-3 cells [2]; 10 μM, 36 h time-point): approximately 70%
- cells lost their viability (PC-3 cells [2]; 10 μM, 48 h time-point): ~100%
- cell death at time-points earlier than 12 h (PC-3 cells [2]; 10 μM, time course): no significant cell death
- activity of caspase-9 and -3/-7 induced ([3]; 24 h treatment): 7 fold
- activity of caspase-9 and -3/-7 induced ([3]; 48 h treatment): > 60 fold
- apoptosis induction blocked by double knockdown of Bax/Bak (2LMP cells [4]; 10 μM, 18 h, Bax and Bak siRNA): approximately 70%
- cell death induction blocked by knock-down of c-Myc (2LMP cells [4]; 10 μM, c-Myc siRNA): > 70%
- apoptosis induction decreased by knock-down of Puma (2LMP cells [4]; 18 h, Puma siRNA): 30-50%
- apoptosis induction reduced by knock-down of Noxa (2LMP cells [4]; all the concentrations tested, 18 h, Noxa siRNA): > 50%
- cell death induction blocked by knock-down of c-Myc (PC-3 cells [5]; 10 μM, c-Myc siRNA): > 70%
- effect of double knockdown of Bax/Bak on apoptosis induction (PC-3 cells [5]; 18 h, Bax and Bak siRNA): no effect
- effect of double knockdown of Bax/Bak on apoptosis induction (DU145 cells; 18 h, Bax and Bak siRNA): modestly reduced
- cell death induction upon c-Myc knock-down (DU145 cells; p53-mutated, c-Myc siRNA): effective blockage
- cells to undergo apoptosis (MEF Bax/Bak KO cells; 5 μM): 11%
- cells to undergo apoptosis (MEF Bax/Bak KO cells; 10 μM): 13%
- cell death reduced in the Bax/Bak double knock-out (MEF Bax/Bak KO cells; 20 μM, versus wild-type MEF): 25%
- cells to undergo apoptosis (wild-type MEF cells; 5 μM): 29%
- cells to undergo apoptosis (wild-type MEF cells; 10 μM): 33%
- earliest time of clear Noxa protein induction ([6]; 10 μM): 4 h
- earliest time of dramatic induction of the short forms of Mcl-1 ([6]; 10 μM): 8 h
- time of Puma protein upregulation ([6]; 10 μM): 8 h
- Bcl-xL protein level ([6]; 10 μM, 12 h time-point): significant down-regulation
- lowest concentration with clear induction of Noxa and Puma ([6]; 24-h treatment (FIG. 8A)): 2.5 µM
- earliest time of clear Noxa protein induction [7]: 4 h
- earliest time of dramatic induction of the short forms of Mcl-1 [7]: 8 h
- time of Puma protein upregulation [7]: 8 h
- lowest concentration with significant upregulation of Noxa [8]: 2.5 µM
- Noxa induction (FF (fibroblast) cells; 24-48 h treatment at 10 μM): not induced
- cell death (FF (fibroblast) cells; compared to 2LMP cells): minimal cell death
- Noxa induction (HMEC cells; 24-48 h treatment at 10 μM): not induced
- cell death (HMEC cells; compared to 2LMP cells): minimal cell death
- Noxa induction (MCF-12F cells; 24-48 h treatment at 10 μM): not induced
- cell death (MCF-12F cells; compared to 2LMP cells): minimal cell death
- mRNA levels of Noxa increased (Noxa mRNA in 2LMP cells; 2.5 h time-point): 2.3 fold
- mRNA levels of Noxa increased (Noxa mRNA in 2LMP cells; 5 h time-point): 9 fold
- mRNA levels of Noxa increased (Noxa mRNA in 2LMP cells; 7.5 h time-point): 24 fold
- mRNA levels of Noxa increased (Noxa mRNA in 2LMP cells; 10 h time-point): 37 fold
- Puma mRNA increased (Puma mRNA in 2LMP cells; 2.5 h time-point): 1.4 fold
- Puma mRNA increased (Puma mRNA in 2LMP cells; 5 h time-point): 5.4 fold
- Puma mRNA increased (Puma mRNA in 2LMP cells; 7.5 h time-point): 5 fold
- Puma mRNA increased (Puma mRNA in 2LMP cells; 10 h time-point): 4.3 fold
- increase of the long form of Mcl-1 mRNA [9]: less than 3 fold
- sensitization to ABT-737 (2LMP cells [10]; (−)-gossypol 0.5 and 1 μM): effectively sensitize
- sensitization to ABT-737 (MDA-MB-436 cells): effectively sensitize
- sensitization to ABT-737 (PC-3 cells [11]; (−)-gossypol 0.5 and 1 μM): effectively sensitize
- cell death induction upon c-Myc knock-down (RKO colon cancer cells): effective blockage
- binding affinity (Bcl-2): low to sub-micromolar
- binding affinity (Bcl-xL): low to sub-micromolar
- binding affinity (Mcl-1): low to sub-micromolar

- pIC50 (PC-3 cells [11]; Homo sapiens, PC-3, 96 h): < 5.00
SMILES: CN(C)CC[C@H](CSc1ccccc1)Nc1ccc(S(=O)(=O)NC(=O)c2ccc(N3CCN(Cc4ccccc4-c4ccc(Cl)cc4)CC3)cc2)cc1[N+](=O)[O-] [ABT-737, reference compound]
- cell death (2LMP cells [1]; 1 μM): no effect
- cell death (2LMP cells [1]; 2.5 μM): no effect
- cell death induction upon knock-down of Mcl-1 (2LMP cells [1]; Mcl-1 knock-down): sensitizes
- cell death induction upon knock-down of Mcl-1 (PC-3 cells [2]; Mcl-1 knock-down): sensitizes
- pIC50 (2LMP cells [10]; Homo sapiens, 96 h): < 5.00
